The text below walks through data of the NIST ThermoML archive (doi:10.1021/je700404u).

For data set [1] the following is noted: 293.15 K; 101.33 kPa; Liquid.
The nature of data set [2]: refractive index (Na D-line) (dimensionless). To be noted: 293.15 K; 101.33 kPa; Liquid; Standard Abbe refractometry.

By mass density is commonly meant the mass of a sample divided by its volume. By refractive index is commonly meant the speed of light in vacuum divided by its phase velocity in the sample.

± gives the expanded uncertainty stated by the source.

Consider `CCOCCO` [2-ethoxyethan-1-ol], for which, in data set [1], the mass density is listed as 929 ± 1 kg/m3. Moreover, the refractive index in data set [2] is recorded as 1.4065 ± 0.0007.

Regarding `CC(C)=O` [acetone], the mass density in data set [1] came to 790 ± 1 kg/m3. Besides, the refractive index in data set [2] is 1.359 ± 0.0007.

Consider `CCO` [ethanol], for which the mass density in data set [1] is on record as 789 ± 1 kg/m3. Also, the refractive index in data set [2] amounted to 1.3619 ± 0.0007.

Turning to `CO` [methanol], the mass density in data set [1] came to 791 ± 1 kg/m3. Also, in data set [2], the refractive index turned out to be 1.3287 ± 0.0007.
